Results on ten compounds are retold here after PubChem BioAssay (NCI).

SMILES strings stand for the structures.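 Briefly, cells in 96-well plates were exposed to five compound concentrations for 48 h, and endpoints were estimated by linear interpolation. GI50: concentration for 50% inhibition of growth. TGI marks complete inhibition of growth.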 Where only a bound is given, the exact number is not on record here.

Among the test systems are MDA-MB-435; NCI-H23 lung; HCT-15 colon; TK-10 renal; OVCAR-8 ovarian; HL-60(TB) leukemia; NCI-H460 lung; SF-539 CNS; NCI-H522 lung; SK-OV-3 ovarian.
Holding throughout (test): NCI tumour cell line growth inhibition, 48 h

As for `NC(=O)C(N)Cc1ccc(O)cn1` (configuration not stated), the TGI in the assay on MDA-MB-435, in the assay with NCI-H23 lung, in the assay on HCT-15 colon, in the assay with TK-10 renal, with OVCAR-8 ovarian and in the assay on HL-60(TB) leukemia was greater than 100 µM each time. The TGI in the assay on NCI-H460 lung, in the assay on SF-539 CNS and in the assay on NCI-H522 lung was greater than 100 µM in each case.
For `COc1ccc(C2CC(=O)CC(c3ccc(OC)cc3)C23C(=O)NC(=O)NC3=O)cc1` (configuration not stated), the TGI in the assay with MDA-MB-435 is 61.6 µM; with NCI-H23 lung, 64.7 µM; in the assay on HCT-15 colon, greater than 100 µM; in the assay with TK-10 renal, greater than 100 µM; with OVCAR-8 ovarian, greater than 100 µM; in the assay with HL-60(TB) leukemia it was 81 µM. Also, the TGI with NCI-H460 lung was greater than 100 µM; with SF-539 CNS, greater than 100 µM; in the assay on NCI-H522 lung, 60.2 µM.
As for `O=S(=O)(c1ccccc1)n1c2cc3cccnc3nc2c2cccnc21`, the TGI in the assay on SK-OV-3 ovarian was greater than 100 µM; in the assay with MDA-MB-435, 60 µM; in the assay on NCI-H23 lung it was greater than 100 µM; in the assay with HCT-15 colon it was greater than 100 µM; in the assay with TK-10 renal, greater than 100 µM; in the assay with OVCAR-8 ovarian, greater than 100 µM. The TGI in the assay with HL-60(TB) leukemia is 48.1 µM; in the assay on NCI-H460 lung, greater than 100 µM; with NCI-H522 lung, greater than 100 µM.
Turning to `C=CCNC1=C2C[C@@H](C)C[C@@H](OC)[C@H](OC(=O)CCCCN)[C@H](C)/C=C(\C)[C@@H](OC(N)=O)[C@H](OC)/C=C\C=C(/C)C(=O)NC(=CC1=O)C2=O`, the TGI in the assay with SK-OV-3 ovarian worked out at 19.9 µM; in the assay with MDA-MB-435, 25.6 µM; with NCI-H23 lung, 30 µM; with HCT-15 colon, 34.1 µM; in the assay with TK-10 renal it was 29 µM; with OVCAR-8 ovarian, 37.3 µM. In addition, the TGI in the assay with HL-60(TB) leukemia stood at 30.3 µM; with NCI-H460 lung, 26 µM; with NCI-H522 lung, 28.8 µM.
For `O=c1[nH]c(-c2ccc3ccccc3c2)nc2ccccc12`, the TGI was greater than 100 µM with SK-OV-3 ovarian; greater than 100 µM in the assay on MDA-MB-435; greater than 100 µM in the assay with NCI-H23 lung; greater than 100 µM in the assay with HCT-15 colon; 13.4 µM in the assay on TK-10 renal; 54.4 µM in the assay with OVCAR-8 ovarian. Further, the TGI with HL-60(TB) leukemia, in the assay on NCI-H460 lung and in the assay with NCI-H522 lung was greater than 100 µM throughout.
Turning to `Cc1nc(N)sc1-c1ccnc(Nc2ccc(N3CCOCC3)cc2)n1`, the GI50 in the assay on SK-OV-3 ovarian is 2.62 µM; with MDA-MB-435, 1.86 µM; in the assay on NCI-H23 lung, 1.6 µM; in the assay on HCT-15 colon it was 0.991 µM; in the assay on TK-10 renal it was 1.06 µM; with OVCAR-8 ovarian, 2.78 µM. In addition, the GI50 was 1.99 µM with HL-60(TB) leukemia, 0.495 µM in the assay with NCI-H460 lung and 1.41 µM in the assay with NCI-H522 lung. Moreover, the TGI is greater than 100 µM with SK-OV-3 ovarian; 36.7 µM in the assay with MDA-MB-435; greater than 100 µM in the assay on NCI-H23 lung; greater than 100 µM in the assay with HCT-15 colon; 8.14 µM with TK-10 renal; greater than 100 µM in the assay with OVCAR-8 ovarian. Further, the TGI in the assay on HL-60(TB) leukemia was 6.08 µM; with NCI-H460 lung, greater than 43.9 µM; in the assay on NCI-H522 lung, 87.5 µM.
As to `Cc1ccc2c(n1)C(=O)c1[nH]c3ccccc3c1C2=O`, the GI50 with SK-OV-3 ovarian was 4.95 µM; with MDA-MB-435, 1.59 µM; with NCI-H23 lung it was 0.687 µM; in the assay on TK-10 renal, 12 µM; in the assay on OVCAR-8 ovarian it was 2.61 µM; with HL-60(TB) leukemia it was 2.67 µM. In addition, the GI50 was 0.337 µM in the assay with NCI-H460 lung, 2.15 µM in the assay on SF-539 CNS and 2.48 µM in the assay with NCI-H522 lung. Further, the TGI was greater than 100 µM in the assay on SK-OV-3 ovarian; 2.94 µM in the assay with MDA-MB-435; 3.79 µM in the assay with NCI-H23 lung; greater than 100 µM in the assay on TK-10 renal; greater than 100 µM in the assay on OVCAR-8 ovarian; 9.43 µM in the assay on HL-60(TB) leukemia. For the same compound, the TGI was determined as 1.63 µM in the assay on NCI-H460 lung, 5.11 µM in the assay with SF-539 CNS and 9.05 µM in the assay with NCI-H522 lung.
On to `Cc1nc2ccccc2c(=O)n1NC(=O)c1ccc(CS)cc1`, for which the TGI in the assay on SK-OV-3 ovarian was 78 µM; with MDA-MB-435 it was 31.3 µM; in the assay on NCI-H23 lung, 52.1 µM; with HCT-15 colon, greater than 100 µM; with OVCAR-8 ovarian it was greater than 100 µM; in the assay with HL-60(TB) leukemia it was greater than 100 µM. Besides, the TGI in the assay with NCI-H460 lung came out at 60.4 µM; with SF-539 CNS it was 26.6 µM; with NCI-H522 lung, 27 µM.
Consider `COC(=O)Cc1cc(O)c(C/C=C(\C)CC/C=C(\C)C(O)C(=O)C=C(C)C)cc1O` (configuration not stated), for which the TGI with SK-OV-3 ovarian is 78.8 µM; in the assay with MDA-MB-435 it was 45.4 µM; in the assay on NCI-H23 lung, 93.3 µM; in the assay with OVCAR-8 ovarian it was 55.1 µM; in the assay with HL-60(TB) leukemia, 12 µM; with NCI-H460 lung, 48.3 µM. The TGI in the assay with SF-539 CNS is 40.5 µM; in the assay with NCI-H522 lung it was 39.8 µM.
As to `CC1=C(C#N)C(C#N)(C#N)C(NN(C)C)C1` (configuration not stated), the TGI is greater than 100 µM with SK-OV-3 ovarian; 75 µM in the assay with MDA-MB-435; 40.8 µM in the assay on NCI-H23 lung; 21.3 µM with HCT-15 colon; 34 µM with TK-10 renal; greater than 100 µM with OVCAR-8 ovarian. Also, the TGI was greater than 100 µM in the assay with HL-60(TB) leukemia, greater than 100 µM in the assay on SF-539 CNS and 24.8 µM in the assay on NCI-H522 lung.
